Where no end group is shown, it is not given here.
Legend:
[1] = test system: proglucagon gene expression; assay: Relative proglucagon gene expression in organoids (qPCR); assay type: cell-based, mouse; settings: 10 min, Phe 20 mM, 2^-ΔΔCt normalised to β-actin, versus control
Procedure: (§1) For RNA isolation, frozen STC-1 cells or organoids were homogenized in QIAzol, and total RNA was isolated using the miRNeasy Mini Kit (Qiagen, Hilden, Germany). Total RNA was quantified in a NanoDrop 2000 spectrophotometer (Thermo Scientific, MA, USA). According to the instructions, total RNA was reverse transcribed to cDNA using a Script II RT Kit (Qiagen, Hilden, Germany). RNA expression levels were determined in duplicate by quantitative real-time PCR (qPCR) on a 7900HT Real-Time PCR System (Applied Biosystems), using miScript SYBR Green PCR Kits (Qiagen, Hilden, Germany).
(§2) Amplification was initiated at 50 °C for 2 min and at 95 °C for 10 min, followed by 40 cycles of 95 °C for 15 s and 60 °C for 1 min. The following specific oligonucleotides were used: for cholecystokinin (CCK) forward (F) 5′-[…]-3′ and reverse (R) 5′-[…]-3′; for GLP-1 (F) 5′-[…]-3′ and (R) 5′-[…]-3′; for peptide YY (PYY) (F) 5′-[…]-3′ and (R) 5′-[…]-3′; and for reference gene β-actin (F) 5′-[…]-3′ and (R) 5′-[…]-3′. The relative expression levels of the target gene were calculated using the comparative critical threshold method (2^–ΔΔCt), by normalizing the data to the expression of β-actin.

CCK gene expression [2] = assay: Relative CCK gene expression in STC-1 cells (qPCR); assay type: cell-based; settings: 60 min, Phe 20 mM
Procedure: (§3) Cells were cultured at 37 °C, 5% CO2, and a humidified atmosphere for 48 h into 24-well plates at a density of 3 × 10^5 cells per well.
as §1, §2

p-IRS = assay: Immunoblotting p-IRS/IRS in STC-1 cells; assay type: cell-based; settings: peptide 1 mM, EWD 2 mg/mL, Phe 20 mM, 5, 15, 30, 60 min, immunoblot
Procedure: […]; then, cells were lysed with RIPA buffer, and ERK1/2, p-ERK1/2, AMPK, p-AMPK, p-IRS-1, IRS-1, glyceraldehyde-3-phosphate dehydrogenase (GAPDH), and heat shock protein (HSP90) contents were examined using immunoblotting. Protein samples were lysed, separated on 10% SDS-polyacrylamide gels, and the separated proteins were electroblotted from the gel onto nitrocellulose membranes ([…], Millipore, MA, USA) and blocked with skim milk for 30 min at room temperature. Membranes were incubated with primary antibodies overnight at 4 °C. After incubation, membranes were exposed to secondary antibodies for 45 min at room temperature. Blots were rinsed three times with Tris-buffered saline with Tween 20, pH 8.0, after each incubation step and visualized using an Odyssey infrared imaging system (LI-COR, Lincoln, NE, USA).

PYY gene expression [3] = assay: Relative PYY gene expression in organoids (qPCR); assay type: cell-based, mouse; settings: organoids, 10, 30, 60 min; EWD 2 mg/mL, Phe 20 mM, peptide 1 mM
Procedure: as §1, §2

PYY gene expression [4] = assay: Relative PYY gene expression in STC-1 cells (qPCR); assay type: cell-based; settings: 60 min, Phe 20 mM
Procedure: as §3, §1, §2

CCK gene expression [5] = assay: Relative CCK gene expression in organoids (qPCR); assay type: cell-based, mouse; settings: peptide 1 mM (induced at 60 min), Phe 20 mM (induced from 30 min), versus control
Procedure: as §1, §2

STC-1 cells [6] = assay: GLP-1 secretion in STC-1 cells (GLP-1 Active ELISA of supernatants); assay type: cell-based; settings: Phe 20 mM, peptide 1 mM, n = 3
Procedure: STC-1 cells supplied by ATCC (ATCC CRL-3254, Manassas, VA, USA) were cultured in Dulbecco’s Modified Eagle’s Medium (ATCC, Manassas, VA, USA) supplemented with 100 U/mL penicillin, 100 mg/L streptomycin, 0.25 μg/mL amphotericin (Lonza Group, Basel, Switzerland), and 10% fetal bovine serum (ATCC, Manassas, VA, USA). Cells were incubated at 37 °C in a 5% CO2 humidified atmosphere, and once they reached 80% confluence, they were trypsinized and seeded according to each cell study. The experiments were performed from passage numbers 31–35.
as §3
(§4) After hormonal secretion studies, GLP-1_7–36NH2 was measured in the supernatants of cells or organoids in duplicate with the commercial immunoassay Glucagon-Like Peptide-1 Active ELISA (Merck KGaA, Darmstadt, Germany), according to the manufacturer’s instructions.

mouse jejunal organoids = assay: GLP-1 secretion in mouse jejunal organoids (GLP-1 Active ELISA of supernatants); assay type: cell-based; settings: Phe 20 mM, peptide 1 mM, n = 3
Procedure: Mouse intestinal organoids (enteroids) were derived from adult intestinal stem cells (ISCs). Intestinal crypts were isolated from the jejunum of male and female wild-type mice following the protocol provided by STEMCELL Technologies. Crypts were cultured at 37 °C until organoids were fully developed (5–7 days). Intestinal organoids were suspended in 10 mL of cold DMEM/F12 (Lonza, Basel, Switzerland), and the crypts were suspended in a mixture (50:50) of Matrigel (Corning, NY, USA) and complete IntestiCult Organoid Growth Medium (STEMCELL Technologies, Vancouver, Canada). This mix was gently placed in the center of each well of a prewarmed 24-well plate until the Matrigel solidified and formed a dome. IntestiCult Organoid Growth Medium (STEMCELL Technologies, Vancouver, Canada) was added, and crypts were cultured at 37 °C and 5% CO2 until organoids were developed. After 7 days, the mouse intestinal organoids were passed following the STEMCELL Technologies protocol. The experiments were performed from passage numbers 1 to 6.
as §4

STC-1 cells [7] = settings: earlier screening in STC-1; ref authors' previous study (number not given); cited from earlier work
Procedure: Later, other authors, using the enteroendocrine cell line STC-1, have related the GLP-1-inducing effect to peptides of molecular mass between […], and it was shown that peptides present a greater induc ... || There is little information about the structural features necessary to induce secretion by enteroendocrine cells of GLP-1. The organoid cellular media collected at 60 min were analyzed by HPLC–MS/MS in order to assess the possible proteolysis of the assayed peptides during the incubation. The small intestine brush border has different enzymes, oligopeptidases, lipases, and carbohydrases that contribute to nutrient hydrolysis and absorption. Other authors have described that enterocytes present in mouse intestinal organoids have mature brush borders, with the presence of their typical enzymes, ...

[8] = test system: mouse intestinal organoids
Procedure: On the day of the experiment, the medium was discarded, and the Matrigel was removed with cold PBS. Next, the organoids were centrifuged for 3 min at 300 × g, the medium was discarded, and after three washes, the organoids were resuspended in saline buffer (20 mM HEPES 1 M, 1 mM glucose, 140 mM NaCl, 4.5 mM KCl, 1.2 mM CaCl2, 1.2 mM MgCl2, 0.1% BSA, pH 7.4). The organoids were incubated for 40 min at 37 °C in this buffer. These organoids were resuspended in a new saline buffer and transferred to 96-well plates at a 60 organoids per well-ratio. The samples (EWD at 2 mg/mL, Phe at 20 mM, and synthetic peptide at 1 mM) were diluted in saline buffer, added to the well, and assayed in triplicate. […] After 10, 30, and 60 min, the plate was centrifuged for 3 min at 300 × g, supernatants were collected, organoids were lysed with QIAzol (Qiagen, Hilden, Germany), and samples were stored at −80 °C for further analysis.
The percentage of each sequence was calculated relative to the total area in each sample.

N[C@@H](Cc1ccccc1)C(=O)O [Phe, Phenylalanine]
Relative proglucagon gene expression [1]: 1.8 fold change | CCK gene overexpression (CCK gene expression [2]): 4 fold | p-IRS expression versus control, in words (p-IRS): p-IRS overexpression at all time points | PYY gene expression versus control, in words (PYY gene expression [3]): an effect of both the peptide and Phe was observed at 10 min, with Phe keeping the increased expression at 30 min | PYY gene overexpression (PYY gene expression [4]): 2 fold | CCK gene expression, maximum fold change (CCK gene expression [5]): 2.8 fold change | GLP-1 release in STC-1 cells versus control, in words (STC-1 cells [6]; 10, 30 and 60 min, EWD 2 mg/mL): only reached significance after incubation with the peptide or Phe for 60 min | GLP-1 induced in STC-1 cells (STC-1 cells [6]; HEPES buffer pH 7.4, time not printed at the place (60 min by b40), ELISA, mean ± SEM): 416.6 ± 40.1 pM | GLP-1 release in organoids versus control, in words (mouse jejunal organoids; 10, 30 and 60 min, EWD 2 mg/mL): faster GLP-1 induction was observed in the case of Phe (10 min) | GLP-1 release in organoids (mouse jejunal organoids; 60 min, 60 organoids per well in saline buffer pH 7.4, 37 °C, ELISA, mean ± SEM): 43.7 ± 1 pM

IRGCRL [124IRGCRL129, hexapeptide, shorter form of 123WIRGCRL129 found in organoid supernatants]
GLP-1 secretion in STC-1 cells, in words (STC-1 cells [7]): induce GLP-1 in STC-1, although at lower levels than the tryptophan-containing precursor peptide

WARGCRL [WARGCRL]
Susceptibility to peptidases in organoids, in words [8]: most susceptible sequences to the action of peptidases

WIRACRL [WIRACRL]
Susceptibility to peptidases in organoids, in words [8]: most susceptible sequences to the action of peptidases

WIRGARL [WIRGARL]
Susceptibility to peptidases in organoids, in words [8]: most susceptible sequences to the action of peptidases

Source: PMC12232376, “A Lysozyme-Derived Peptide Induces GLP‑1 Secretion in Mouse Jejunal Organoids and Modulates Glycemia in Rats” (Journal of Agricultural and Food Chemistry, 2025)
